Values quoted from earlier work as cited in patent US6956029B1, “Solid formulation of glucosamine sulphate” (SCA Lohnherstellungs AG, priority 1999, dated 2005).

Legend:
[1] = over 30 days at 75% rH/20° C.
[2] = first acid dissociation constant

SMILES	stability on storage [1]	pKa1 [2]
N[C@H]1C(O)O[C@H](CO)[C@@H](O)[C@@H]1O.O=S(=O)([O-])O.[Cl-].[K+].[K+] (stereo partly drawn) [mixed salt with potassium chloride, D-glucosamine sulphate di-potassium chloride]	essentially stable	–
O=C1O[C@H]([C@@H](O)CO)C(O)=C1O [ascorbic acid]	–	4.1
O=C(O)CC(O)(CC(=O)O)C(=O)O [citric acid]	–	3.1
